From publication PMC10150354, “Linearization of the Brevicidine and Laterocidine Lipopeptides Yields Analogues That Retain Full Antibacterial Activity” (Journal of Medicinal Chemistry, 2023)
Values after ≈ are worked out from the molar mass of the structure shown. Where a SMILES comes first, the peptide text is derived from it. [ ]: non-standard residue; d: D form. The star is where a group is joined. ξ: configuration not given here. Octanoyl(7-Me) = CC(C)CCCCCC(=O)*; Hexanoyl(4ξ-Me) = CCC(C)CCC(=O)*; dOrn = NCCC[C@@H](N)C(=O)O; Orn = NCCC[C@H](N)C(=O)O

Key:
E. coli (MCR-1) = type: cell-based, Escherichia coli; details: microbroth dilution per CLSI, MHB, 18 h at 37 °C, visual inspection, three technical replicates, E. coli 25922 carrying mcr-1
Experimental: (§1) Linear laterocidine (LL-OH, 4) and linear brevicidine (LB-OH, 5) were first synthesized by Fmoc SPPS, starting from 2-chlorotrityl (2-CT) chloride resin. The antibacterial activity of these peptides was then compared to brevicidine (1) and laterocidine (2) using minimum inhibitory concentration (MIC)/microbroth dilution assays (Table 1). The MICs of all peptides were determined against a panel of Gram-negative and Gram-positive ESKAPE pathogens. Additionally, a strain of E. coli carrying the mcr-1 gene was included in the panel. The mcr-1 gene is a transferrable plasmid that confers resistance against colistin, a last-resort antibiotic for Gram-negative infections, by reducing the overall negative charge of lipopolysaccharide (LPS) through modification of lipid A with phosphoethanolamine. The propensity for cationic antibiotics to bind to the cell membrane is therefore reduced. This gene has been observed in more than 27 bacterial species over six continents.[26] The spread of the mcr-1 gene could render colistin ineffectual; therefore, novel antibacterials are urgently required to overcome this form of resistance.
(§2) All minimum inhibitory concentrations (MICs) were determined according to Clinical and Laboratory Standards Institute (CLSI) guidelines. Blood agar plates were inoculated with glycerol stocks of E. coli ATCC 25922, K. pneumoniae ATCC 13883, A. baumannii ATCC 17961, P. aeruginosa PAO1, and S. aureus USA300. The inoculated agar plates were then incubated for 16 h at 37 °C. Individually grown colonies were subsequently used to inoculate 5 mL aliquots of TSB that were then incubated at 37 °C with shaking at 220 rpm. E. coli 25922 MCR-1 glycerol stock was used to inoculate 5 mL of TSB supplemented with kanamycin that was then incubated for 16 h at 37 °C with shaking at 220 rpm. The next day the culture was diluted 100-fold in TSB supplemented with kanamycin and incubated at 37 °C with shaking at 220 rpm. In parallel, the lipopeptide antibiotics DMSO stocks to be assessed were serially diluted with MHB in polypropylene 96-well plates (50 μL in each well). Colistin sulfate stocks were dissolved in water before being diluted with MHB. Aliquots of the inoculated TSB were incubated until an OD600 of around 0.5 was reached. The bacterial suspensions were then diluted with MHB (2 × 10^5 CFU/mL) and added to the microplates containing the test compounds (50 μL to each well). The well plates were sealed with an adhesive membrane and after 18 h of incubation at 37 °C with shaking at 600 rpm, the wells were visually inspected for bacterial growth. MIC values reported are based on three technical replicates and defined as the lowest concentration of the compound that prevented visible growth of bacteria.

E. coli ATCC 25922 = type: cell-based, Escherichia coli; details: for Antibacterial activity (MIC) E. coli ATCC 25922: microbroth dilution per CLSI, MHB, 18 h at 37 °C, visual inspection, three technical replicates
Experimental: as §1, §2

K. pneumoniae ATCC 13883 = type: cell-based, Klebsiella pneumoniae; details: microbroth dilution per CLSI, MHB, 18 h at 37 °C, visual inspection, three technical replicates
Experimental: as §1, §2

A. baumannii ATCC 17961 = type: cell-based, Acinetobacter baumannii; details: microbroth dilution per CLSI, MHB, 18 h at 37 °C, visual inspection, three technical replicates
Experimental: as §1, §2

P. aeruginosa PAO1 = type: cell-based, Pseudomonas aeruginosa; details: microbroth dilution per CLSI, MHB, 18 h at 37 °C, visual inspection, three technical replicates
Experimental: as §1, §2

S. aureus USA300 = type: cell-based, Staphylococcus aureus; details: microbroth dilution per CLSI, MHB, 18 h at 37 °C, visual inspection, three technical replicates
Experimental: as §1, §2

Row | Structure (SMILES) | Antibacterial activity (MIC) E. coli (MCR-1) (E. coli (MCR-1)) [µg/mL] | Antibacterial activity (MIC) E. coli ATCC 25922 (E. coli ATCC 25922) [µg/mL] | Antibacterial activity (MIC) K. pneumoniae ATCC 13883 (K. pneumoniae ATCC 13883) [µg/mL] | Antibacterial activity (MIC) A. baumannii ATCC 17961 (A. baumannii ATCC 17961) [µg/mL] | Antibacterial activity (MIC) P. aeruginosa PAO1 (P. aeruginosa PAO1) [µg/mL] | Antibacterial activity (MIC) S. aureus USA300 (S. aureus USA300) [µg/mL] | MIC (µg/mL) against E. coli (ATCC 25922) (E. coli ATCC 25922; (Supplement 2)) [µg/mL]
1 | CCC(C)CCC(=O)N[C@H](CC(N)=O)C(=O)N[C@H](Cc1ccc(O)cc1)C(=O)N[C@H](Cc1c[nH]c2ccccc12)C(=O)N[C@H](C)C(=O)N[C@@H](CCCN)C(=O)NCC(=O)N[C@H](CCCN)C(=O)N[C@@H](Cc1c[nH]c2ccccc12)C(=O)N[C@H](C(=O)N[C@H](C(=O)NCC(=O)N[C@@H](CO)C(N)=O)[C@@H](C)CC)[C@@H](C)O (stereo partly drawn) [LB(D-Ala4)-NH2 (20)] ({Hexanoyl(4ξ-Me)}-[dN][dY][dW][dA][Orn]G[dOrn]WTIGS-NH2) | >32 | >32 | >32 | 32 | 32 | >32 | –
2 | CC[C@H](C)[C@H](NC(=O)[C@@H](NC(=O)[C@H](Cc1c[nH]c2ccccc12)NC(=O)[C@@H](CCCN)NC(=O)CNC(=O)[C@H](CCCN)NC(=O)[C@@H](CCCN)NC(=O)[C@@H](Cc1c[nH]c2ccccc12)NC(=O)[C@@H](Cc1ccc(O)cc1)NC(=O)[C@@H](C)NC(=O)CCCCCC(C)C)[C@@H](C)O)C(=O)N[C@@H](CC(N)=O)C(=O)NCC(=O)NCC(N)=O [LL(D-Ala1)-NH2 (29)] ({Octanoyl(7-Me)}-[dA][dY][dW][dOrn][Orn]G[dOrn]WTINGG-NH2) | 8 | 8 | >32 | 32 | 8 | >32 | –
3 | CC[C@H](C)[C@H](NC(=O)[C@@H](NC(=O)[C@H](Cc1c[nH]c2ccccc12)NC(=O)[C@@H](CCCN)NC(=O)CNC(=O)[C@H](CCCN)NC(=O)[C@@H](CCCN)NC(=O)[C@@H](C)NC(=O)[C@@H](Cc1ccc(O)cc1)NC(=O)[C@@H](CO)NC(=O)CCCCCC(C)C)[C@@H](C)O)C(=O)N[C@@H](CC(N)=O)C(=O)NCC(=O)NCC(N)=O [LL(D-Ala3)-NH2 (31)] ({Octanoyl(7-Me)}-[dS][dY][dA][dOrn][Orn]G[dOrn]WTINGG-NH2) | >32 | >32 | >32 | >32 | >32 | >32 | –
4 | CCC(C)CCC(=O)N[C@H](CC(N)=O)C(=O)N[C@H](Cc1ccc(O)cc1)C(=O)N[C@H](Cc1c[nH]c2ccccc12)C(=O)N[C@H](CCCN)C(=O)N[C@@H](CCCN)C(=O)NCC(=O)N[C@H](CCCN)C(=O)N[C@@H](Cc1c[nH]c2ccccc12)C(=O)N[C@H](C(=O)N[C@H](C(=O)NCC(=O)N[C@@H](CO)C(=O)O)[C@@H](C)CC)[C@@H](C)O (stereo partly shown) [LB-OH (5)] ({Hexanoyl(4ξ-Me)}-[dN][dY][dW][dOrn][Orn]G[dOrn]WTIGS-OH) | >32 | >32 | >32 | >32 | 16 | >32 | –
5 | CCC(C)CCC(=O)N[C@H](CC(N)=O)C(=O)N[C@H](Cc1ccc(O)cc1)C(=O)N[C@H](Cc1c[nH]c2ccccc12)C(=O)N[C@H](CCCN)C(=O)N[C@@H](CCCN)C(=O)NCC(=O)N[C@H](CCCN)C(=O)N[C@@H](Cc1c[nH]c2ccccc12)C(=O)N[C@@H](CCSC)C(=O)N[C@H](C(=O)NCC(N)=O)[C@@H](C)CC (stereo partly shown) [Δ12LB (Met9)-NH2 (55)] ({Hexanoyl(4ξ-Me)}-[dN][dY][dW][dOrn][Orn]G[dOrn]WMIG-NH2) | 4 | 4 | 4 | 4 | 4 | >32 | 2 (≈ 1.35 µM)
